Data as given in US4327097A, “Novel penicillins” (Toyama Chemical Co., Ltd., priority 1974, dated 1982).
Converted amounts (≈) assume the structure as drawn.

Tests used:
[1] = test system: mouse; experiment: Toxicity, LD50 i.v. in mouse; assay type: in vivo; settings: i.v. in mouse having a weight of 19±1 g
Excerpt: The present penicillins and cephalosporins have generally low toxicity.

[2] = test system: Escherichia coli NIHJ; experiment: MIC, plate method, standard strains; assay type: cell-based; settings: unit assumed
In short: (§1)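 Heart infusion agar, pH 7.4, plate method. Inoculum: 10^4 cells/plate (10^6 cells/ml). Read-out: MIC.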

[3] = test system: Klebsiella pneumoniae; experiment: MIC, plate method, standard strains; assay type: cell-based; settings: unit assumed
In short: as §1

[4] = test system: Proteus vulgaris 3027; experiment: MIC, plate method, standard strains; assay type: cell-based; settings: unit assumed
In short: as §1

[5] = test system: Pseudomonas aeruginosa I.F.O.; experiment: MIC, plate method, standard strains; assay type: cell-based; settings: unit assumed
In short: as §1

[6] = test system: Staphylococcus aureus 209p; experiment: MIC, plate method, standard strains; assay type: cell-based; settings: unit assumed
In short: as §1

[7] = test system: Staphylococcus aureus; experiment: MIC against clinical isolates; assay type: cell-based; settings: unit assumed
[8] = test system: Escherichia coli; experiment: MIC against clinical isolates; assay type: cell-based; settings: unit assumed
[9] = test system: Pseudomonas aeruginosa; experiment: MIC against clinical isolates; assay type: cell-based; settings: unit assumed; for MIC Pseudomonas aeruginosa GN: strain number not given
[10] = test system: Klebsiella pneumoniae; experiment: MIC against clinical isolates; assay type: cell-based; settings: unit assumed
[11] = test system: Shigella flexneri; experiment: MIC against clinical isolates; assay type: cell-based; settings: Table 5-5, clinical isolate; unit assumed
Protocol: (§2) The minimum inhibitory concentration (MIC) was determined by the plate method disclosed in "Chemotherapy" (Japan), Vol. 16, (1968), pages 98-99. The culture medium used was a Heart infusion agar (pH 7.4). The number of the cells per plate used in the inoculum was 10^4 (10^6 cells/ml).
(§3) MIC was determined in the same manner as in the preceding paragraph (1).

[12] = test system: Shigella sonnei; experiment: MIC against clinical isolates; assay type: cell-based; settings: Table 5-5, clinical isolate; unit assumed
Protocol: as §2, §3

[13] = test system: Salmonella typhi-murium; experiment: MIC against clinical isolates; assay type: cell-based; settings: Table 5-5, clinical isolate; unit assumed
[14] = test system: Proteus mirabilis; experiment: MIC against clinical isolates; assay type: cell-based; settings: unit assumed
[15] = test system: Proteus vulgaris; experiment: MIC against clinical isolates; assay type: cell-based; settings: unit assumed
[16] = test system: Proteus rettgeri; experiment: MIC against clinical isolates; assay type: cell-based; settings: unit assumed
[17] = test system: β-lactamase, Pseudomonas aeruginosa GN 238; experiment: Resistant activity against β-lactamase, iodometric assay; assay type: biochemical; settings: β-lactamase from Pseudomonas aeruginosa GN 238; Potassium Penicillin G = 100
In short: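 Crude β-lactamase was the sonicated-cell supernatant from P. aeruginosa GN 238, grown 6 h at 37 °C and washed in 0.1 M phosphate pH 7.0. Compound stability to the enzyme measured iodometrically; values are relative activity with potassium penicillin G set at 100.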

[18] = test system: Proteus morganii; experiment: MIC against clinical isolates; assay type: cell-based; settings: Table 6-5, clinical isolate; unit assumed
[19] = target: β-lactamase, Escherichia freundii GN 346 (Citrobacter freundii, UniProt Q46041); experiment: Resistant activity against β-lactamase, iodometric assay; assay type: biochemical; settings: control Cephalorizine = 100
β-lactamase, Escherichia freundii GN 346, sequence (Q46041 entry or part of it): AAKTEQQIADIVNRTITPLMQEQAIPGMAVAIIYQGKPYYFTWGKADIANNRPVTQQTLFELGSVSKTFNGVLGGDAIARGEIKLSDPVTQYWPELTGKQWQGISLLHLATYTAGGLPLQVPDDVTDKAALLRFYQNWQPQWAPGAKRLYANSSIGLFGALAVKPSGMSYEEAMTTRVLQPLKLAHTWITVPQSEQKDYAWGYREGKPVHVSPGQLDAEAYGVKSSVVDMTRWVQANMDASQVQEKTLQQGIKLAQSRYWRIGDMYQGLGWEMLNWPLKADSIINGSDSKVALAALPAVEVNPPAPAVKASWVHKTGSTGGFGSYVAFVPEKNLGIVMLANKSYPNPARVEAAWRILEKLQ
Protocol: (§4) (4) Resistant activity of each cephalosporin compound against β-lactamase, Proteus vulgaris GN 76 and Escherichia freundii GN 346:
(§5) The resistant activity of each cephalosporin compound against β-lactamase was measured in the manner described below.
(§6) β-lactamase was prepared from Proteus vulgaris GN 76 and Escherichia freundii GN 346. 10 ml of an overnight culture in Heart Infusion broth was diluted with 100 ml of a medium containing 2 g of yeast extract, 10 g of polypeptone, 2 g of glucose, 7 g of disodium hydrogen phosphate, 2 g of potassium dihydrogen phosphate, 1.2 g of ammonium sulfate and 0.4 g of magnesium sulfate, per liter, and incubated with shaking at 37° C. After incubation of 2 hrs, Penicillin G (50 μg/ml) was added as the inducer, and further incubated for 2 hrs. The resulting cells were collected by centrifugation (5,000 r.p.m.×10 min.) and washed two times with 0.1 M phosphate buffer (pH 7.0). Subsequently, the cells were subjected to sonication (20 KHz, 5 min.) and then centrifuged at 15,000 r.p.m. for 60 min. By using the supernatant of enzyme fluid, the stability of each compound against β-lactamase was determined by the iodometric assay method. Each numeral shown in Table 7-2 is a relative activity value calculated by assuming as 100 the activity of the control Cephalorizine.

[20] = target: T1, β-lactamase, Proteus vulgaris GN 76 (Proteus vulgaris, UniProt P52664); experiment: as above; assay type: biochemical; settings: control Cephalorizine = 100
T1 construct: By using the supernatant of enzyme fluid; endogenous in cells; host or cells: Proteus vulgaris GN 76 (penicillin G-induced cells, sonicated, 15,000 r.p.m. supernatant)
T1 sequence (P52664 30-300): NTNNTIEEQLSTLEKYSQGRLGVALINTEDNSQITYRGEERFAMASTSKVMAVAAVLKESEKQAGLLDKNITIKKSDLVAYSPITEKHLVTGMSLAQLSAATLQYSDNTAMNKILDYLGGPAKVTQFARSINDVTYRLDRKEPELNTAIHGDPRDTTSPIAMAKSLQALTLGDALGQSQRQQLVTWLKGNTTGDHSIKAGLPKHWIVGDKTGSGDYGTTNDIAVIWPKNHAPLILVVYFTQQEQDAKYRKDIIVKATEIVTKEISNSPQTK
Protocol: as §4, §5, §6

`CCN1CCN(C(=O)N[C@@H](C(=O)N[C@@H]2C(=O)N3[C@@H]2SC(C)(C)[C@@H]3C(=O)O)c2ccccc2)C(=O)C1=O` was tested, and the LD50 [1] was “greater than 5 g/kg”.

In the case of `CC(C)N1CCN(C(=O)NC(C(=O)NC2C(=O)N3C2SC(C)(C)C3C(=O)O)c2ccccc2)C(=O)C1=O` (single isomer, unassigned) [Compound 40], the MIC Esche--richin coil NIHJ ([2]; Table 3, standard strain) is reported as < 0.1 µg/mL, the MIC Klebsiella pneumoniae ([3]; Table 3, standard strain) is reported as 3.13 µg/mL (≈ 5.89 µM) and the MIC Proteus vulgaris 3027 ([4]; Table 3, standard strain) is reported as 0.4 µg/mL (≈ 0.752 µM). The MIC Pseudomonas aeruginosa I.F.C ([5]; Table 3, standard strain) was 6.25 µg/mL (≈ 11.8 µM), the MIC Staphylococcus aureus 209p ([6]; Table 3, standard strain, Heart infusion agar pH 7.4) was 0.4 µg/mL (≈ 0.752 µM) and the MIC Staphylococcus aureus F-1 ([7]; Table 5-1, clinical isolate) was 6.25 µg/mL (≈ 11.8 µM). For the same compound, the MIC Staphylococcus aureus F-2 ([7]; Table 5-1, clinical isolate) was 3.13 µg/mL (≈ 5.89 µM), the MIC Staphylococcus aureus F-4 ([7]; Table 5-1, clinical isolate) was 6.25 µg/mL (≈ 11.8 µM) and the MIC Staphylococcus aureus F-5 ([7]; Table 5-1, clinical isolate) was > 200 µg/mL. For the same compound, the MIC Staphylococcus aureus MS 8588 ([7]; Table 5-1, clinical isolate) was 3.13 µg/mL (≈ 5.89 µM), the MIC Staphylococcus aureus MS 8596 ([7]; Table 5-1, clinical isolate) was 3.13 µg/mL (≈ 5.89 µM) and the MIC Staphylococcus aureus MS 8684 ([7]; Table 5-1, clinical isolate) was 3.13 µg/mL (≈ 5.89 µM). It also gave an MIC Escherichia coli GN 3452 ([8]; Table 5-2, clinical isolate) of 1.57 µg/mL (≈ 2.95 µM), an MIC Escherichia coli GN 3465 ([8]; Table 5-2, clinical isolate) of 50 µg/mL (≈ 94.1 µM) and an MIC Escherichia coli GN 3481 ([8]; Table 5-2, clinical isolate) of 1.57 µg/mL (≈ 2.95 µM). For the same compound, the MIC Escherichia coli GN 3611 ([8]; Table 5-2, clinical isolate) was > 200 µg/mL, the MIC Escherichia coli K-1 ([8]; Table 5-2, clinical isolate) was 1.57 µg/mL (≈ 2.95 µM) and the MIC Escherichia coli K-2 ([8]; Table 5-2, clinical isolate) was 3.13 µg/mL (≈ 5.89 µM). The MIC Escherichia coli K-3 ([8]; Table 5-2, clinical isolate) was > 200 µg/mL, the MIC Pseudomonas aeruginosa GN ([9]; Table 5-3, clinical isolate) was 6.25 µg/mL (≈ 11.8 µM) and the MIC Pseudomonas aeruginosa GN 82 ([9]; Table 5-3, clinical isolate) was 6.25 µg/mL (≈ 11.8 µM). The MIC Pseudomonas aeruginosa GN 163 ([9]; Table 5-3, clinical isolate) was 6.25 µg/mL (≈ 11.8 µM), the MIC Pseudomonas aeruginosa GN 221 ([9]; Table 5-3, clinical isolate) was 6.25 µg/mL (≈ 11.8 µM) and the MIC Pseudomonas aeruginosa GN 376 ([9]; Table 5-3, clinical isolate) was 3.13 µg/mL (≈ 5.89 µM). For the same compound, the MIC Pseudomonas aeruginosa GN 383 ([9]; Table 5-3, clinical isolate) was 6.25 µg/mL (≈ 11.8 µM), the MIC Pseudomonas aeruginosa GN 1091 ([9]; Table 5-3, clinical isolate) was 6.25 µg/mL (≈ 11.8 µM) and the MIC Pseudomonas aeruginosa GN 2987 ([9]; Table 5-3, clinical isolate) was 3.13 µg/mL (≈ 5.89 µM). For the same compound, the MIC Klebsiella pneumoniae GN 917 ([10]; Table 5-4, clinical isolate) was 6.25 µg/mL (≈ 11.8 µM), the MIC Klebsiella pneumoniae GN 4081 ([10]; Table 5-4, clinical isolate) was 100 µg/mL (≈ 188 µM) and the MIC Klebsiella pneumoniae GN 4117 ([10]; Table 5-4, clinical isolate) was 50 µg/mL (≈ 94.1 µM). The MIC Shigella flexneri JS 11215 [11] was 50 µg/mL (≈ 94.1 µM), the MIC Shigella flexneri JS 11839 [11] was 3.13 µg/mL (≈ 5.89 µM) and the MIC Shigella sonnei JS 11232 [12] was 50 µg/mL (≈ 94.1 µM). For the same compound, the MIC Shigella sonnei JS 11755 [12] was 3.13 µg/mL (≈ 5.89 µM), the MIC Salmonella typhi-murium SL 2136 [13] was > 200 µg/mL and the MIC Proteus mirabilis ([14]; Table 5-6, clinical isolate) was < 0.4 µg/mL. The MIC Proteus vulgaris ([15]; Table 5-6, clinical isolate) was < 0.4 µg/mL, the MIC Proteus rettgeri ([16]; Table 5-6, clinical isolate) was 6.25 µg/mL (≈ 11.8 µM) and the “Relative activity (%), resistant activity against β-lactamase” value [17] was 15%.

In the case of `CCCCN1CCN(C(=O)NC(C(=O)NC2C(=O)N3C(C(=O)O)=C(CSc4nnnn4C)CSC23)c2ccccc2)C(=O)C1=O` (single isomer, unassigned) [Compound No. 73], the MIC Escherichia coli NIHJ ([2]; Table 4, standard strain) is reported as < 0.1 µg/mL, the MIC Klebsiella pneumoniae ([3]; Table 4, standard strain) is reported as 0.2 µg/mL (≈ 0.304 µM) and the MIC Proteus vulgaris 3027 ([4]; Table 4, standard strain) is reported as 1.57 µg/mL (≈ 2.39 µM). For the same compound, the MIC Pseudomonas aeruginosa I.F.O. ([5]; Table 4, standard strain) was 25 µg/mL (≈ 38 µM), the MIC Staphylococcus aureus 209p ([6]; Table 4, standard strain) was 1.57 µg/mL (≈ 2.39 µM) and the MIC Staphylococcus aureus F-1 ([7]; Table 6-1, clinical isolate) was 1.56 µg/mL (≈ 2.37 µM). It also gave an MIC Staphylococcus aureus MS 8588 ([7]; Table 6-1, clinical isolate) of 1.56 µg/mL (≈ 2.37 µM), an MIC Staphylococcus aureus MS 8596 ([7]; Table 6-1, clinical isolate) of 3.13 µg/mL (≈ 4.76 µM) and an MIC Staphylococcus aureus MS 8619 ([7]; Table 6-1, clinical isolate) of 1.56 µg/mL (≈ 2.37 µM). The MIC Staphylococcus aureus MS 8684 ([7]; Table 6-1, clinical isolate) was 1.56 µg/mL (≈ 2.37 µM), the MIC Escherichia coli GN 3435 ([8]; Table 6-2, clinical isolate) was 0.78 µg/mL (≈ 1.19 µM) and the MIC Escherichia coli GN 3452 ([8]; Table 6-2, clinical isolate) was 0.78 µg/mL (≈ 1.19 µM). The MIC Escherichia coli GN 3465 ([8]; Table 6-2, clinical isolate) was 1.56 µg/mL (≈ 2.37 µM), the MIC Escherichia coli K-2 ([8]; Table 6-2, clinical isolate) was 1.56 µg/mL (≈ 2.37 µM) and the MIC Escherichia coli K-4 ([8]; Table 6-2, clinical isolate) was 0.78 µg/mL (≈ 1.19 µM). For the same compound, the MIC Pseudomonas aeruginosa GN ([9]; Table 6-3, clinical isolate) was 12.5 µg/mL (≈ 19 µM), the MIC Pseudomonas aeruginosa GN4 ([9]; Table 6-3, clinical isolate) was 12.5 µg/mL (≈ 19 µM) and the MIC Pseudomonas aeruginosa GN 82 ([9]; Table 6-3, clinical isolate) was 12.5 µg/mL (≈ 19 µM). The MIC Pseudomonas aeruginosa GN 221 ([9]; Table 6-3, clinical isolate) was 12.5 µg/mL (≈ 19 µM), the MIC Pseudomonas aeruginosa GN 376 ([9]; Table 6-3, clinical isolate) was 12.5 µg/mL (≈ 19 µM) and the MIC Pseudomonas aeruginosa GN 1035 ([9]; Table 6-3, clinical isolate) was 50 µg/mL (≈ 76 µM). It also gave an MIC Pseudomonas aeruginosa GN 1091 ([9]; Table 6-3, clinical isolate) of 12.5 µg/mL (≈ 19 µM), an MIC Pseudomonas aeruginosa GN 2565 ([9]; Table 6-3, clinical isolate) of 25 µg/mL (≈ 38 µM) and an MIC Pseudomonas aeruginosa S-1 ([9]; Table 6-4, clinical isolate) of 50 µg/mL (≈ 76 µM). It also gave an MIC Klebsiella pneumoniae GN 917 ([10]; Table 6-4, clinical isolate) of 0.78 µg/mL (≈ 1.19 µM), an MIC Klebsiella pneumoniae GN 4081 ([10]; Table 6-4, clinical isolate) of 1.56 µg/mL (≈ 2.37 µM) and an MIC Proteus mirabilis ([14]; Table 6-5, clinical isolate) of 0.39 µg/mL (≈ 0.593 µM). It also gave an MIC Proteus morganii [18] of 0.78 µg/mL (≈ 1.19 µM), an MIC Proteus vulgaris ([15]; Table 6-5, clinical isolate) of 0.78 µg/mL (≈ 1.19 µM) and an MIC Proteus rettgeri ([16]; Table 6-5, clinical isolate) of 3.13 µg/mL (≈ 4.76 µM). For the same compound, the “Relative activity (%) against β-lactamase, E. freundii GN 346” value [19] was 0.1% and the “Relative activity (%) against β-lactamase, Pr. vulgaris GN 76” value [20] was 4%.
